From ChEMBL document CHEMBL1154481, “Pharmacophore modeling of diverse classes of p38 MAP kinase inhibitors” (Eur J Med Chem, 2008) come the findings set out here.

The nature of this experiment: Inhibition of p38 MAPK.
With `COc1cc2[nH]ccc2cc1C(=O)N1C[C@H](C)N(Cc2ccccc2)C[C@H]1C`, inhibition was half-maximal at 1300 nM (IC50). For `O=C(c1cccc2[nH]ccc12)N1CCN(Cc2ccccc2)CC1`, the 50% inhibitory concentration (IC50) – broadly, the point on the concentration scale where inhibition reaches its midpoint – came out at 4700 nM. For `O=c1ccc(-c2c(-c3ccc(F)cc3)nc3ccccn23)nn1-c1c(Cl)cccc1Cl`, the midpoint of inhibition, the IC50, lay at 49 nM. Then `COC[C@H](C)Nc1cc(-c2c(-c3ccccc3)nc3nc(N)ccn23)ccn1`, with 2 nM; and `O=C1CCC(c2c(-c3cccc(C(F)(F)F)c3)nc3ccccn23)=NN1c1ccccc1Cl`, with 170 nM. In the case of `Nc1ccn2c(-c3ccnc(NCc4ccccc4)c3)c(-c3ccc(F)cc3)nc2n1` it was 6 nM; in that of `O=C1NCc2nc(Sc3ccccc3)ccc2N1c1c(Cl)cccc1Cl`, 270 nM. Then `Cc1ccccc1-c1nc(N(C(N)=O)c2c(F)cccc2F)c2ncn(C)c2n1`, with 140 nM; and `Cc1ccc(NC(=O)c2ccnc(N3CCOCC3)c2)cc1Nc1ccnc(OC2CCN(C)CC2)n1`, with 40 nM; and `O=C1NCc2c(-c3ccc(F)cc3Cl)cc(C3CCN(CC4CCC4)CC3)cc2N1c1c(Cl)cccc1Cl`, with 0.6 nM. `Nc1nc(N)c(F)c(-c2nc(-c3cccc(C(F)(F)F)c3)c(-c3ccncc3)[nH]2)c1F` displayed an IC50 of 470 nM. Turning to `CC(C)(C)N1CCC(c2cc(-c3ccc(F)cc3Cl)c3c(c2)N(c2c(Cl)cccc2Cl)C(=O)NC3)CC1`, inhibition was half-maximal at 0.2 nM (IC50). In the case of `Cc1ccccc1N1N=C(c2c(-c3ccc(F)cc3F)nc3ccccn23)CCC1=O` it was 8 nM; in that of `Nc1ccn2c(-c3ccncn3)c(-c3ccccc3)nc2n1`, 990 nM; in that of `Fc1ccc(-c2[nH]c3ccc4[nH]c(Cc5ccccc5)nc4c3c2-c2ccncc2)cc1`, 22 nM. Then `O=C1CCC(c2c(-c3ccc(F)cc3F)nc3ccccn23)=NN1c1c(Cl)cccc1Cl`, with 8 nM.

For `O=C1NCc2c(-c3ccc(F)cc3Cl)cc(C3CCN(CC4CC4)CC3)cc2N1c1c(Cl)cccc1Cl`, the IC50 is 0.5 nM. Against the preceding compound, the IC50 is about 16-fold lower.

The compound `COc1ccc(C#CC(C)(C)N)cc1C(=O)c1ccc(Nc2ccc(F)cc2F)cc1` registered an IC50 of 14 nM. In the case of `Cc1ccccc1Sc1ccc2c(n1)CNC(=O)N2c1c(Cl)cccc1Cl` it was 110 nM. Then `O=C(c1ccc2[nH]cc(CN3CCOCC3)c2c1)N1CCC(Cc2ccccc2)CC1`, with 6600 nM; and `CCN(CC)CCCn1ccc2cc(C(=O)N3CCC(Cc4ccccc4)CC3)c(Cl)cc21`, with 200 nM.
